Source: patent publication US20220202774A1, “PHARMACEUTICAL COMPOSITION FOR PREVENTION OR TREATMENT OF SPINAL CORD INJURY OR SPINAL STENOSIS” (NEUROBIT SCIENCE CO., LTD., priority 2019, published 2022)
Where two headings read alike, the source gives them in different places.

Columns and labels:
[1] = tested on: chronic mechanical allodynia-induced rats; test: Paw withdrawal threshold (von Frey) in chronic mechanical allodynia-induced rats after compression of the cauda equina; assay type: in vivo, Sprague-Dawley rats
Method: For experiments related to the present invention, a total of 167 male Sprague-Dawley rats (250 to 270 g, Samtako, Osan, Korea) were used. The rats were kept in an environment of room temperature (23±1° C.) and 60±10% humidity under a 12-hour light/12-hour dark cycle (light on from 07:30 to 19:30) and given free access to water and food. The rats were housed individually in cages (410×282×153 mm, clear polycarbonate) lined with aspen shaving bedding and fed a commercial diet (5L79, PMI Nutrition International, St Louis, Mo.) and a commercial standard feed (Lab Diet 5L791 Purina Mills, Richmond, Ind.). All animal experiments were performed in accordance with the guidelines of the Animal Protection Committee of Kyung Hee University (Permission No. KHUASP(SE)-15-006) and in compliance with the ethical guidelines of the International Association for the Study of Pain.
More specifically, the rats were anesthetized by administering chloral hydrate (500 mg/kg) as an intraperitoneal injection, the backside of each rat was shaved, and the L4 to S2 vertebral plates were exposed.
Next, the ligamenta flava between L4 and L5 were removed. […]
Mechanical allodynia was assessed by detecting responses to stimulation with calibrated von Frey filaments and evaluated in terms of paw withdrawal threshold (PWT). […]

PGE2 = PGE2 level in cauda equina fibers by ELISA; assay type: in vivo, Sprague-Dawley rats
Method: (§1) Only rats with a weight in the range of 350 to 380 g and in which chronic mechanical allodynia (2.5-4.0 g) was induced on the 28th day of compression of the cauda equina were selected as the experimental group. The rats were randomly assigned to three experimental groups treated with a vehicle, celecoxib, or the compound according to the present invention.
(§2) Celecoxib (Sigma, St. Louis, Mo.) or the compound according to the present invention was dissolved in methyl pyrrolidone:Tween-80:saline (1:1:8, 100 μl) and injected intraperitoneally at a dose of 2, 5, or 10 mg/kg. The vehicle group was injected with 1-methyl-2-pyrrolidone (1-methyl-2-pyrrolidone:Tween-80:saline (1:1:8)) at an equal dose.
(§3) For analysis at the molecular level, the rats were perfused with 0.1 M PBS, and a 20 mm-thick section of the cauda equina with the site of injury at the center was isolated and kept frozen at −80° C. until use.
Levels of PEG2 in the cauda equina fibers were analyzed using a PEG2 ELISA kit (Monoclonal, Cayman Chemical Ann Arbor, Mich.) according to the manufacturer's instructions.
An experiment was performed using rats administered with celecoxib and the compound according to the present invention to confirm through RT-PCR whether production of inflammatory mediators is inhibited. Another experiment was performed to confirm through ELISA whether production of PGE2 is inhibited.

[2] = tested on: LPS-induced PGE2 production in RAW 264.7 (a murine macrophage cell line); test: Inhibition of production of LPS-induced PGE2 by macrophage cell line; assay type: cell-based; details: Mus musculus
Method: RAW 264.7 (a murine macrophage cell line) was obtained from Korea Cell Line Bank (KCLB). RAW 264.7 was cultured in Dulbecco's Modified Eagle Medium (DMEM) containing 10% fetal bovine serum (FBS), penicillin (100 units/mL), and streptomycin sulfate (100 μg/mL) at 37° C. and in a humidified atmosphere of 5% carbon dioxide in air.
Using DMEM, 1 mL each of RAW 264.7 with a concentration of 5×10^5 cells/mL was seeded in 24 wells. The seeded cells were left overnight, the medium was changed, and then the drug was treated at an appropriate concentration. After incubating for 1 hour, LPS was treated at 1 μg/ml, followed by incubation for 24 hours (or an appropriate length of time). The supernatant was taken and diluted 5-fold. 150 μl of an assay buffer was added to Non-Specific Binding (NSB) wells, and 100 μl of the assay buffer was added to zero standard (Bo) wells. 100 μl of standard sample and 50 μl of PGE2 conjugates were added to the remaining wells (excluding the NSB wells). 50 μl of PGE2 antibody solution was added to the wells and shaken for 2 hours. The contents of each well were suctioned off, and the wells were washed 5 times with wash buffer. 200 μl of para-nitrophenyl phosphate (pNPP) substrate was added to all wells. After storing the wells at room temperature (in a clean bench) for 1 hour, 50 μl of a stop solution was added, and absorbance was measured at 405 nm. […]

IL-6 mRNA = test: RT-PCR of IL-6 mRNA in cauda equina of chronic mechanical allodynia-induced rats; assay type: in vivo, Sprague-Dawley rats; details: 30 minutes after administering
Method: as §1, §2
(§4) At the time of the peak effect (30 minutes after injection of drug), the rats were anesthetized by injecting chloral hydrate (500 mg/kg) and perfused with 0.1 M PBS (pH 7.4), followed by perfusion with a solution containing 4% paraformaldehyde added to PBS.
as §3
(§5) RT-PCR of TNF-α, IL-1β, IL-6, iNOS, and GAPDH was performed. […]

iNOS mRNA = test: RT-PCR of iNOS mRNA in cauda equina of chronic mechanical allodynia-induced rats; assay type: in vivo, Sprague-Dawley rats; details: 30 minutes after administering
Method: as §1, §2, §4, §3, §5

TNF-α mRNA = test: RT-PCR of TNF-α mRNA in cauda equina of chronic mechanical allodynia-induced rats; assay type: in vivo, Sprague-Dawley rats; details: 30 minutes after administering
Method: as §1, §2, §4, §3, §5

IL-1β mRNA = test: RT-PCR of IL-1β mRNA in cauda equina of chronic mechanical allodynia-induced rats; assay type: in vivo, Sprague-Dawley rats
Method: as §1, §2, §4, §3, §5

[3] = tested on: RAW 264.7 (the murine macrophage cell line); test: Cytotoxicity of macrophages (MTT assay); assay type: cell-based; details: Mus musculus, RAW264.7; RAW 264.7, LPS 1 μg/ml, 24 hours; read-out: Cell viability(μM) (IC50, MTT assay)
Method: The physiological activity of 3-(4-chlorophenyl)-4-(4-aminosulfonyl-phenyl)-1-methyl-1H-pyrrole-2,5-dione prepared according to Example 2 has been expressed in terms of IC50, which is the concentration at which there is 50% inhibition of the activity of an enzyme. On the other hand, for the cytotoxicity of the compounds according to the present invention, cell viability values (IC50) were measured using the MTT assay.
RAW 264.7 (the murine macrophage cell line) was cultured in DMEM containing 10% FBS, penicillin (100 units/ml), and streptomycin sulfate (100 μg/ml) at 37° C. and in a humidified atmosphere of 5% carbon dioxide in air. Cells were collected using centrifugation and a scraper. The cells were added at a concentration of 1×10^5 cells/well to wells of a 96-well plate containing Roswell Park Memorial Institute (RPMI) 1640 medium, which includes 10% FBS. 3 beta, 4 beta-epoxy-8a-isobutyryloxyguaia-1(10),11, (13)-diene-12.6a-olide was dissolved in methylsulfoxide (DMSO) as a solvent. […] After one night, samples and LPS (1 μg/ml) were added to the wells, and the plate was incubated for 24 hours. […]

CN1C(=O)C(c2ccc(Cl)cc2)=C(c2ccc(S(N)(=O)=O)cc2)C1=O [3-(4-chlorophenyl)-4-(4-aminosulfonyl-phenyl)-1-methyl-1H-pyrrole-2,5-dione]
PWT compared to the vehicle group ([1]; 2, 5, 10 mg/kg intraperitoneal, 30 minutes after injecting): increased significantly in a dose-dependent manner | duration of analgesic effect ([1]; high dose, intraperitoneal): 3 h | PGE2 production compared to the vehicle group (PGE2): significantly reduced | IC50 ([2]; RAW264.7, 24 h, RAW 264.7, LPS 1 μg/ml, 24 hours, read-out: IC50(μM) PGE2): 0.0087 µM | IC50 ([2]; RAW264.7, RAW 264.7, LPS-induced, text/FIG. 2, read-out: IC50 value for inhibition of PGE2 production): 0.00595 µM | expression of IL-6 mRNA (IL-6 mRNA): significantly reduced | expression of iNOS mRNA (iNOS mRNA): significantly reduced | expression of TNF-α mRNA (TNF-α mRNA): significantly reduced | expression of IL-1β mRNA (IL-1β mRNA): significantly reduced | IC50 [3]: > 10 µM
